Data taken from patent US9580390B2, “Indazole compounds as kinase inhibitors and method of treating cancer with same” (University Health Network, priority 2011, dated 2017).

Key:
human TTK = target: T1, human TTK (Homo sapiens, UniProt P33981); experiment: TTK inhibition assay (indirect ELISA); type: biochemical; settings: read-out: TTK IC50 Range
T1 construct: amino terminal GST fusion of full length human TTK; purchased Invitrogen
T1 sequence (P33981 1-857): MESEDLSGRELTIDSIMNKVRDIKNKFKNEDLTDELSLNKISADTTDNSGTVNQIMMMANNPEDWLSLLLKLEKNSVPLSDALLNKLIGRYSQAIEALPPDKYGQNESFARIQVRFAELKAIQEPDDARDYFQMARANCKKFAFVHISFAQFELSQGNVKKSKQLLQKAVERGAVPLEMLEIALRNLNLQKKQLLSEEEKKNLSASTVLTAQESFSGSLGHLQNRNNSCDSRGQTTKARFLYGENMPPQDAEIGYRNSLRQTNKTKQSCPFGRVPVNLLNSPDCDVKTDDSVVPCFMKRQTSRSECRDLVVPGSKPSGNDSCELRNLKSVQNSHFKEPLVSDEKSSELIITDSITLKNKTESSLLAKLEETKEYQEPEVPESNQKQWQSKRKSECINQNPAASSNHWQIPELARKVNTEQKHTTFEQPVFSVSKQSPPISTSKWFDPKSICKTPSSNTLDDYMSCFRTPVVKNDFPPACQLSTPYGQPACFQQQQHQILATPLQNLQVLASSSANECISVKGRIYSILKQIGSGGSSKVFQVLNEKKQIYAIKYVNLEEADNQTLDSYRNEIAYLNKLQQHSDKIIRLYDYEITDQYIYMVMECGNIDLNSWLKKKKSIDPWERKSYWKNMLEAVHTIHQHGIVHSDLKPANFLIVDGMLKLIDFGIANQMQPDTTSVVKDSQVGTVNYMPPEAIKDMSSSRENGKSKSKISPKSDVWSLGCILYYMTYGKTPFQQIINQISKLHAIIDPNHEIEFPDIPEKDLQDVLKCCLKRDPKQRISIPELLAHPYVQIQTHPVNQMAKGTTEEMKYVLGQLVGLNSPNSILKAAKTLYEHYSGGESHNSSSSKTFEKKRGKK

[1] = tested on: colon cancer cells (HCT116); experiment: Cancer cell line growth inhibition (SRB assay); type: cell-based; settings: Homo sapiens, HCT-116; read-out: Cancer Cell Line GI50 Range HCT116
Breast cancer cells = experiment: Cancer cell line growth inhibition (SRB assay); type: cell-based; settings: Homo sapiens; MDA-MB-468; read-out: Cancer Cell Line GI50 Range MDA-MB-468
[2] = tested on: ovarian cancer cells (PA-1); experiment: Cancer cell line growth inhibition (SRB assay); type: cell-based; settings: Homo sapiens, PA-1; read-out: Cancer Cell Line GI50 Range PA-1

| IC50 (human TTK) | GI50 [1] | GI50 (Breast cancer cells) | GI50 [2] | Structure (SMILES) |
| --- | --- | --- | --- | --- |
| < 100 nM | 100 to 500 nM | 100 to 500 nM | < 100 nM | O=CN1CCC2(CC1)CC(=O)c1cc(-c3n[nH]c4ccc(C(=O)N[C@H](c5ccccn5)C5CC5)cc34)ccc1O2 [Example A263, (S)-N-(cyclopropyl(pyridin-2-yl)methyl)-3-(1′-formyl-4-oxospiro[chroman-2,4′-piperidin]-6-yl)-1H-indazole-5-carboxamide] |
| < 100 nM | > 500 nM | > 500 nM | > 500 nM | O=C(NCC1(c2cccnc2)CC1)c1ccc2[nH]nc(-c3ccc(N4CCOCC4)cc3)c2c1 [Example A461, 3-(4-morpholinophenyl)-N-((1-(pyridin-3-yl)cyclopropyl)methyl)-1H-indazole-5-carboxamide] |
| < 100 nM | 100 to 500 nM | 100 to 500 nM | 100 to 500 nM | O=C(N[C@@H](c1ccccn1)C1CC1)c1ccc2[nH]nc(-c3ccc(N4CC(N5CCOCC5)C4)cc3)c2c1 [Example A316, (R)-N-(cyclopropyl(pyridin-2-yl)methyl)-3-(4-(3-morpholinoazetidin-1-yl)phenyl)-1H-indazole-5-carboxamide] |
| < 100 nM | 100 to 500 nM | 100 to 500 nM | < 100 nM | CCC(CC)(CNC(=O)c1ccc2[nH]nc(-c3ccc(N4CCOCC4)cc3)c2c1)N1CCOCC1 [Example A463, N-(2-ethyl-2-morpholinobutyl)-3-(4-morpholinophenyl)-1H-indazole-5-carboxamide] |
| < 100 nM | 100 to 500 nM | 100 to 500 nM | 100 to 500 nM | CN1CCC2(CC1)CC(=O)c1cc(-c3n[nH]c4ccc(C(=O)N[C@H](c5ccccc5)C5CC5)cc34)ccc1O2 [Example A251, (S)-N-(cyclopropyl(phenyl)methyl)-3-(1′-methyl-4-oxospiro[chroman-2,4′-piperidin]-6-yl)-1H-indazole-5-carboxamide] |
| < 100 nM | 100 to 500 nM | 100 to 500 nM | 100 to 500 nM | CC(C)(O)CN1CCC(Oc2ccc(-c3n[nH]c4ccc(C(=O)N[C@H](c5ccsc5)C5CC5)cc34)cc2)CC1 [Example A218, (S)-N-(cyclopropyl(thiophen-3-yl)methyl)-3-(4-((1-(2-hydroxy-2-methylpropyl)piperidin-4-yl)oxy)phenyl)-1H-indazole-5-carboxamide] |
| < 100 nM | 100 to 500 nM | 100 to 500 nM | 100 to 500 nM | CCC(CC)(CNC(=O)c1ccc2[nH]nc(-c3ccc(N4CCN(C)CC4)cc3)c2c1)c1ccccc1 [Example A441, N-(2-ethyl-2-phenylbutyl)-3-(4-(4-methylpiperazin-1-yl)phenyl)-1H-indazole-5-carboxamide] |
| < 100 nM | 100 to 500 nM | > 500 nM | 100 to 500 nM | O=C(N[C@H](c1ccsc1)C1CC1)c1ccc2[nH]nc(-c3ccc(OC4CCN(C[C@@H](O)C(F)(F)F)CC4)cc3)c2c1 [Example A223, N-((S)-cyclopropyl(thiophen-3-yl)methyl)-3-(4-((1-((R)-3,3,3-trifluoro-2-hydroxypropyl)piperidin-4-yl)oxy)phenyl)-1H-indazole-5-carboxamide] |

Second part, the compound before the results:

| Structure (SMILES) | IC50 (human TTK) | GI50 [1] | GI50 (Breast cancer cells) | GI50 [2] |
| --- | --- | --- | --- | --- |
| CCC[C@H](NC(=O)c1ccc2[nH]nc(-c3ccc(OC4CC5CCC(C4)N5C4COC4)cc3)c2c1)c1ccccc1 (stereo partly drawn) [Example A344, 3-(4-(((1R,3R,5S)-8-(oxetan-3-yl)-8-azabicyclo[3.2.1]octan-3-yl)oxy)phenyl)-N-((S)-1-phenylbutyl)-1H-indazole-5-carboxamide] | < 100 nM | > 500 nM | > 500 nM | 100 to 500 nM |
| CC(C)[C@@H](NC(=O)c1ccc2[nH]nc(-c3ccc(N4CCN(C5COC5)CC4)cc3)c2c1)c1ccccc1Cl [Example A412, (R)-N-(1-(2-chlorophenyl)-2-methylpropyl)-3-(4-(4-(oxetan-3-yl)piperazin-1-yl)phenyl)-1H-indazole-5-carboxamide] | < 100 nM | < 100 nM | 100 to 500 nM | < 100 nM |
| CC(C)C[C@H](NC(=O)c1ccc2[nH]nc(-c3ccc(OC4CCN(C5COC5)CC4)cc3)c2c1)c1ccccc1Cl [Example A511, (S)-N-(1-(2-chlorophenyl)-3-methylbutyl)-3-(4-((1-(oxetan-3-yl)piperidin-4-yl)oxy)phenyl)-1H-indazole-5-carboxamide] | < 100 nM | 100 to 500 nM | 100 to 500 nM | < 100 nM |
| CN1CC(Oc2ccc(-c3n[nH]c4ccc(C(=O)N[C@H](c5ccccn5)C5CCCC5)cc34)cc2)C1 [Example A295, (S)-N-(cyclopentyl(pyridin-2-yl)methyl)-3-(4-((1-methylazetidin-3-yl)oxy)phenyl)-1H-indazole-5-carboxamide] | < 100 nM | < 100 nM | 100 to 500 nM | < 100 nM |
| O=C(N[C@H](c1ccccn1)C1CC1)c1cc2c(-c3ccc(N4[C@@H]5CC[C@H]4COC5)cc3)n[nH]c2cc1F [Example A272, 3-(4-((1R,5S)-3-oxa-8-azabicyclo[3.2.1]octan-8-yl)phenyl)-N-((S)-cyclopropyl(pyridin-2-yl)methyl)-6-fluoro-1H-indazole-5-carboxamide] | < 100 nM | 100 to 500 nM | > 500 nM | 100 to 500 nM |
| CN1CC2(CC(=O)c3cc(-c4n[nH]c5ccc(C(=O)N[C@H](c6ccccc6)C6CC6)cc45)ccc3O2)C1 [Example A254, (S)-N-(cyclopropyl(phenyl)methyl)-3-(1-methyl-4′-oxospiro[azetidine-3,2′-chroman]-6′-yl)-1H-indazole-5-carboxamide] | < 100 nM | 100 to 500 nM | > 500 nM | 100 to 500 nM |
| CC(C)[C@H](NC(=O)c1ccc2[nH]nc(-c3ccc(C4CCN(C5COC5)CC4)cc3)c2c1)c1ccccc1Cl [Example A406, (S)-N-(1-(2-chlorophenyl)-2-methylpropyl)-3-(4-(4-(oxelan-3-yl)piperidin-1-yl)phenyl)-1H-indazole-5-carboxamide] | < 100 nM | > 500 nM | > 500 nM | > 500 nM |
| O=C(N[C@H](c1ccccn1)C1CCCC1)c1ccc2[nH]nc(-c3ccc(OC4CC5CCC(C4)N5C4COC4)cc3)c2c1 (stereo partly drawn) [Example A347, N-((S)-cyclopentyl(pyridin-2-yl)methyl)-3-(4-(((1R,3R,5S)-8-(oxetan-3-yl)-8-azabicyclo[3.2.1]octan-3-yl)oxy)phenyl)-1H-indazole-5-carboxamide] | < 100 nM | < 100 nM | 100 to 500 nM | 100 to 500 nM |
| O=C(NC(c1ccccc1)C1CC1)c1ccc2[nH]nc(-c3ccc(O[C@H]4C[C@H]5CC[C@@H](C4)N5)cc3)c2c1 (stereo partly drawn) [Example A375, 3-(4-((1R,3R,5S)-8-azabicyclo[3.2.1]octan-3-yloxy)phenyl)-N-(cyclopropyl(phenyl)methyl)-1H-indazole-5-carboxamide] | < 100 nM | < 100 nM | 100 to 500 nM | < 100 nM |
| CC(C)C[C@H](NC(=O)c1ccc2[nH]nc(-c3ccc(N4CC(N5CCOCC5)C4)cc3)c2c1)c1ccccc1F [Example A276, (S)-N-(1-(2-fluorophenyl)-3-methylbutyl)-3-(4-(3-morpholinoazetidin-1-yl)phenyl)-1H-indazole-5-carboxamide] | < 100 nM | < 100 nM | 100 to 500 nM | < 100 nM |
| CC(C)CC(NC(=O)c1ccc2[nH]nc(-c3ccc(O[C@H]4C[C@H]5CC[C@@H](C4)N5C=O)cc3)c2c1)c1ccccc1 (stereo partly drawn) [Example A340, 3-(4-(((1R,3R,5S)-8-formyl-8-azabicyclo[3.2.1]octan-3-yl)oxy)phenyl)-N-(3-methyl-1-phenylbutyl)-1H-indazole-5-carboxamide] | < 100 nM | 100 to 500 nM | 100 to 500 nM | < 100 nM |
| O=C(N[C@@H](c1ccccn1)C1CCCC1)c1ccc2[nH]nc(-c3ccc(N4C5COCC4CC(O)C5)cc3)c2c1 (stereo partly drawn) [Example A425, N-((R)-cyclopentyl(pyridin-2-yl)methyl)-3-(4-((1R,5S,7R)-7-hydroxy-3-oxa-9-azabicyclo[3.3.1]nonan-9-yl)phenyl)-1H-indazole-5-carboxamide] | < 100 nM | < 100 nM | < 100 nM | < 100 nM |
| O=C(NC(c1ccccc1)C1CCC1)c1ccc2[nH]nc(-c3ccc(O[C@H]4C[C@H]5CC[C@@H](C4)N5C4COC4)cc3)c2c1 (stereo partly drawn) [Example A345, N-(cyclobutyl(phenyl)methyl)-3-(4-(((1R,3R,5S)-8-(oxetan-3-yl)-8-azabicyclo[3.2.1]octan-3-yl)oxy)phenyl)-1H-indazole-5-carboxamide] | < 100 nM | 100 to 500 nM | 100 to 500 nM | 100 to 500 nM |
